SMILES strings stand for the structures.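 Each compound was tested at five concentrations against cells in 96-well plates for 48 hours. The concentration for 50% growth inhibition is given as GI50. TGI denotes the concentration required for complete inhibition of growth.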

This passage reports TGI and GI50 results from PubChem BioAssay (NCI).

Test in all cases: inhibition of tumour cell growth, NCI panel, 48 h
The subject of assay [1] is ACHN renal.
Assay [2] concerns SK-MEL-2 melanoma.
Assay [3] concerns SNB-75 CNS.
In assay [4] the test system is DU-145 prostate.
The test system of assay [5] is MOLT-4 leukemia.
For assay [6], the system named is OVCAR-4 ovarian.
For assay [7], the system named is 786-0 renal.
Assay [8] relates to SF-268 CNS.
Assay [9] relates to UACC-62 melanoma.
The subject of assay [10] is SK-MEL-5 melanoma.

On to `CSC(=S)OC1CC(n2cnc3c(NC(=O)c4ccccc4)ncnc32)OC1CO[Si](C)(C)C(C)(C)C` (stereo not given), for which the TGI was above 56.2 µM in assay [1]; 53.4 µM in [2]; 52 µM in assay [3]; 42.6 µM in assay [4]; 14.8 µM in [5]; above 56.2 µM in assay [6]. Further, the TGI is above 56.2 µM in [7], above 56.2 µM in [8], above 56.2 µM in [9] and 18.3 µM in assay [10].

With `Cc1ccc(C(=O)/C(=C\c2ccc([N+](=O)[O-])cc2)S(=O)Cc2ccc(Cl)cc2)cc1` (stereo not given), the GI50 in [1] was 2.09 µM; in assay [2], 1.96 µM; in assay [3] it was 1.53 µM; in assay [4] it was 1.75 µM; in [5], 1.2 µM; in assay [6], 1.85 µM. In addition, the GI50 was 1.57 µM in assay [7], 1.75 µM in [8], 1.65 µM in assay [9] and 1.69 µM in assay [10]. Besides, the TGI in assay [1] was found to be 4.98 µM; in [2] it was 4.15 µM; in assay [3], 3.25 µM; in assay [4], 3.21 µM; in assay [5], 6.14 µM; in [6], 3.85 µM. The TGI was 2.97 µM in assay [7], 3.42 µM in assay [8], 3.22 µM in assay [9] and 3.23 µM in assay [10].

Regarding `C/C(=C\c1cc(C(F)(F)F)n(-c2ccc(N)cc2)n1)[C@@H]1C[C@@H]2O[C@]2(C)CCC[C@H](C)[C@H](O)[C@@H](C)C(=O)C(C)(C)[C@@H](O)CC(=O)O1`, the GI50 in [1] was 0.0822 µM; in assay [2], 0.0295 µM; in [3], 0.0078 µM; in assay [4], 0.0372 µM; in assay [5], 0.0515 µM; in [6], 2.19 µM. Moreover, the GI50 in assay [7] is 0.0614 µM; in assay [8], 0.0502 µM; in assay [9], 0.0245 µM; in [10], 0.0235 µM. In addition, the TGI in [1] is above 11.1 µM; in assay [2] it was 0.382 µM; in [3], 0.189 µM; in assay [4], 0.265 µM; in assay [5], above 11.1 µM; in [6], above 11.1 µM. Further, the TGI in assay [7] was above 11.1 µM; in assay [8] it was above 11.1 µM; in [9] it was above 6.85 µM; in [10], above 3.71 µM.

With `O=C(NO)[C@@H](Cc1ccccc1)NS(=O)(=O)c1ccc(-c2ccccc2)cc1`, the GI50 in [1] is 12.2 µM; in assay [2], above 25 µM; in assay [3], above 25 µM; in assay [4] it was 11.1 µM; in assay [5], 9.43 µM; in assay [6], above 25 µM. Also, the GI50 in [7] is 11.9 µM; in assay [8], 11.6 µM; in [9], above 25 µM; in [10], 20.6 µM. For the same molecule, the TGI in assay [1], in assay [2], in [3], in [4], in assay [5] and in assay [6] was above 25 µM in each case. The TGI in assay [7], in assay [8], in [9] and in assay [10] was above 25 µM in each case.

Consider `CC1=C(/C=C/C(C)=C/C=C/C(C)=C/C(=O)O)C(C)(C)CCC1`, for which the TGI is 75.9 µM in [1]; 48.8 µM in [2]; above 100 µM in assay [3]; above 100 µM in assay [4]; 69.1 µM in assay [5]; above 100 µM in [6]. Moreover, the TGI in [7] was 68.1 µM; in assay [8] it was above 75.1 µM; in assay [9], above 77.4 µM; in assay [10], 63.3 µM.

Consider `CCc1ccc(C(=Nc2ccc(N(C)C(=O)CN3CCN(C)CC3)cc2)c2c(O)[nH]c3ccc(C(=O)OC)cc23)cc1`, for which the GI50 in assay [1] was 0.332 µM; in assay [2], 1.23 µM; in assay [3], 0.17 µM; in assay [4] it was 0.528 µM; in assay [5], 0.176 µM; in assay [6], 0.582 µM. In addition, the GI50 is 0.404 µM in [7], 1.18 µM in assay [8], 1.37 µM in assay [9] and 1.2 µM in assay [10]. The TGI in assay [1] is 1.43 µM; in assay [2], 2.83 µM; in assay [3], 1.52 µM; in assay [4], 1.84 µM; in [5], 0.908 µM; in assay [6], 1.95 µM. For the same molecule, the TGI came to 1.86 µM in [7], 2.8 µM in assay [8], 3.2 µM in [9] and 2.47 µM in assay [10].

Consider `Oc1c(Cl)cc(Cl)cc1C(c1cc(Cl)cc(Cl)c1O)C(Cl)(Cl)Cl`, for which the GI50 is 2.82 µM in assay [1]; 2.72 µM in assay [2]; 3.75 µM in assay [3]; 4.12 µM in assay [4]; 3.67 µM in assay [5]; 3.21 µM in assay [6]. For the same molecule, the GI50 in [7] was 2.4 µM; in assay [8], 2.34 µM; in [9] it was 0.73 µM; in assay [10], 1.21 µM. Besides, the TGI came to 12 µM in assay [1]; 12 µM in assay [2]; 17.4 µM in [3]; 15.7 µM in assay [4]; 10.4 µM in assay [5]; 19 µM in [6]. Further, the TGI in assay [7] is 7.45 µM; in assay [8], 13.8 µM; in assay [9] it was 10.6 µM; in assay [10], 2.73 µM.

Turning to `CC([C@H]1CCC2C3CCC4C[C@@H](N)CC[C@]4(C)C3CC[C@@]21C)N(C)C` (stereo not given in full), the GI50 in [1] was 8.99 µM; in [2], 8.45 µM; in assay [3], 8.15 µM; in assay [4], 14.3 µM; in assay [5] it was 5.02 µM; in assay [6], 9.12 µM. In addition, the GI50 in [7] is 4.99 µM; in assay [8] it was 3.34 µM; in assay [9], 2.36 µM; in assay [10] it was 1.95 µM. Also, the TGI in [1] was 21.6 µM; in assay [2], 21.3 µM; in assay [3] it was 24.9 µM; in [4] it was above 48.4 µM; in assay [5] it was 17.2 µM; in assay [6], 38.9 µM. Besides, the TGI in assay [7] amounted to 11.6 µM; in assay [8], 11.7 µM; in assay [9] it was 5.67 µM; in assay [10], 5.23 µM.

Regarding `C=C1C(=O)O[C@H]2[C@H]1CC/C(COC(=O)C(C)c1ccc(CC(C)C)cc1)=C\CC[C@@]1(C)O[C@@H]21` (stereo not given in full), the GI50 is 1.29 µM in assay [1]; 1.89 µM in assay [2]; 1.68 µM in assay [3]; 1.59 µM in [4]; 0.42 µM in [5]; 1.71 µM in [6]. Further, the GI50 was 0.395 µM in assay [7], 1.72 µM in assay [8], 1.48 µM in assay [9] and 1.6 µM in assay [10]. The TGI amounted to 2.56 µM in assay [1]; 3.72 µM in [2]; 3.16 µM in assay [3]; 2.95 µM in assay [4]; 2.02 µM in assay [5]; 3.35 µM in [6]. The TGI in [7] came out at 1.65 µM; in [8], 3.5 µM; in [9], 2.85 µM; in assay [10], 2.96 µM.

Take `CN(C)CCNc1c2ccccc2nc2oc3ccccc3c12`: the GI50 in assay [1] is 4.48 µM; in assay [2], 12.2 µM; in [3] it was 12.5 µM; in assay [4] it was 4.35 µM; in [5] it was 3 µM; in [6], 9.45 µM. For the same molecule, the GI50 in assay [7] was 5.39 µM; in [8], 5.81 µM; in [9] it was 10.1 µM; in assay [10], 8.09 µM. The TGI in assay [1] worked out at 25.8 µM; in assay [2], 31.4 µM; in assay [3], 25.8 µM; in assay [4] it was 17.9 µM; in assay [5], 12.1 µM; in [6], 37.9 µM. The TGI amounted to 29.2 µM in assay [7], 27.7 µM in assay [8], 23.5 µM in assay [9] and 20.5 µM in assay [10].

Regarding `O=C1C2CCN(CC2)C1(CO)CO`, the TGI is 32.3 µM in assay [1]; above 100 µM in assay [2]; above 81.8 µM in assay [3]; 31.6 µM in assay [4]; 23.6 µM in [5]; 43 µM in assay [6]. Moreover, the TGI in assay [7] was 44 µM; in assay [8], above 100 µM; in assay [9] it was 42.1 µM; in assay [10], above 73.3 µM.

Take `Clc1ccccc1CNc1c2ccccc2nc2ccccc12`: the GI50 is 1.76 µM in [1]; 3.26 µM in assay [2]; 2.55 µM in [3]; 2.45 µM in assay [4]; 1.84 µM in [5]; 2.13 µM in assay [6]. Moreover, the GI50 in [7] was 2.72 µM; in [8] it was 2.95 µM; in assay [9], 2.3 µM; in assay [10] it was 3.09 µM. The TGI amounted to 6.89 µM in assay [1]; 12.5 µM in assay [2]; 9.63 µM in assay [3]; 8.58 µM in [4]; 16.3 µM in [5]; 8.11 µM in assay [6]. Besides, the TGI was 11 µM in assay [7], 11.4 µM in [8], 9.18 µM in assay [9] and 9.34 µM in assay [10].

Consider `O=[N+]([O-])c1cc(C(F)(F)F)ccc1Sc1ccc(C(F)(F)F)cc1[N+](=O)[O-]`, for which the GI50 in assay [1] was 49.4 µM; in assay [2], 3.32 µM; in assay [3], above 100 µM; in assay [4], 10.6 µM; in assay [5], 3.92 µM; in assay [6] it was 4.05 µM. Further, the GI50 in assay [7] is above 100 µM; in assay [8] it was 7.07 µM; in assay [9], 5.27 µM; in [10], 16.7 µM. Besides, the TGI in [1] was above 100 µM; in assay [2], 9.96 µM; in [3] it was above 100 µM; in [4] it was above 100 µM; in assay [5], above 100 µM; in [6], above 100 µM. Moreover, the TGI in assay [7], in [8], in assay [9] and in assay [10] was above 100 µM in each case.

As for `O=C1c2ccccc2-c2c1c1c(O)cccc1n2Cc1ccccn1`, the GI50 in assay [1] is 25.8 µM; in assay [2], above 100 µM; in [3] it was above 100 µM; in assay [4], 36.5 µM; in [5], 91.4 µM; in assay [6], above 100 µM. The GI50 in assay [7] is above 100 µM; in [8] it was 83.5 µM; in assay [9], 20.5 µM; in assay [10], 8.77 µM. The TGI in [1], in assay [2], in assay [3], in assay [4], in assay [5] and in [6] was above 100 µM throughout. Also, the TGI in [7], in assay [8], in [9] and in assay [10] was above 100 µM in each case.

For `CN(Cc1cc(Br)cc(Br)c1O)Cc1c(O)ccc2ccccc12`, the TGI was determined as 41.7 µM in [1]; 35.6 µM in assay [2]; 39.1 µM in assay [3]; 40.6 µM in assay [4]; 30 µM in assay [5]; 34.9 µM in assay [6]. Also, the TGI is 36.2 µM in [7], 74.5 µM in assay [8], 41.3 µM in [9] and 33.1 µM in assay [10].

For `COc1ccc2c(c1)C(=O)/C(=C/c1ccc([N+](=O)[O-])o1)O2`, the GI50 in assay [1] was 0.758 µM; in assay [2], 1.83 µM; in assay [3], 1.73 µM; in assay [4], 2.05 µM; in assay [5] it was 1.67 µM; in assay [6] it was 0.81 µM. For the same molecule, the GI50 in [7] was 1.79 µM; in assay [8], 1.85 µM; in assay [9] it was 1.36 µM; in [10], 1.58 µM. Further, the TGI in assay [1] is 2.02 µM; in [2], 3.83 µM; in assay [3], 5.69 µM; in assay [4] it was 3.97 µM; in assay [5], 3.97 µM; in [6] it was 2.06 µM. Also, the TGI was 3.43 µM in [7], 4.02 µM in [8], 2.91 µM in assay [9] and 3.02 µM in assay [10].
